Laboratory results taken from PubChem BioAssay AID248 (DTP/NCI, 2004).
Where “and” joins values, the source holds several entries; their conditions need not be identical. Identical values can stand only once. Toxic doses and inconclusive results are not listed. Rule as the data show it: active = T/C of 150% or more; inactive = T/C below 125%.

Tested on: L1210 leukemia ip in BDF1 mice, survival T/C
Assay: NCI In Vivo Anticancer Drug Screen. Data for tumor model L1210 Leukemia (intraperitoneal) in B6D2F1 (BDF1) mice
Conditions: endpoint: mean survival time, higher = longer survival
Method in brief: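 Transplanted-tumor mice were given test agent; controls received vehicle only. Survival readings from the two groups were divided (treated over control).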

[1] = dose: 1.56 mg/kg/injection, schedule: Q03HX024 (ip), vehicle: saline
[2] = dose: 3.12 mg/kg/injection, schedule: Q03HX024 (ip), vehicle: saline
[3] = dose: 6.25 mg/kg/injection, schedule: Q01DX009 (ip), vehicle: saline
[4] = dose: 12.5 mg/kg/injection, schedule: Q01DX009 (ip), vehicle: saline
[5] = dose: 12.5 mg/kg/injection, schedule: Q04DX003 (ip), vehicle: saline
[6] = dose: 18.75 mg/kg/injection, schedule: Q01DX001 (ip), vehicle: saline
[7] = dose: 25.0 mg/kg/injection, schedule: Q01DX009 (ip), vehicle: saline
[8] = dose: 25.0 mg/kg/injection, schedule: Q04DX003 (ip), vehicle: saline
[9] = dose: 37.5 mg/kg/injection, schedule: Q01DX001 (ip), vehicle: saline
[10] = dose: 50.0 mg/kg/injection, schedule: Q01DX009 (ip), vehicle: saline
[11] = dose: 50.0 mg/kg/injection, schedule: Q04DX003 (ip), vehicle: saline
[12] = dose: 75.0 mg/kg/injection, schedule: Q01DX001 (ip), vehicle: saline
[13] = dose: 100.0 mg/kg/injection, schedule: Q01DX009 (ip), vehicle: saline
[14] = dose: 100.0 mg/kg/injection, schedule: Q04DX003 (ip), vehicle: saline
[15] = dose: 150.0 mg/kg/injection, schedule: Q01DX001 (ip), vehicle: saline
[16] = dose: 200.0 mg/kg/injection, schedule: Q04DX003 (ip), vehicle: saline
[17] = dose: 100.0 mg/kg/injection, schedule: Q01DX009 (ip), vehicle: saline with Tween-80
[18] = dose: 200.0 mg/kg/injection, schedule: Q01DX009 (ip), vehicle: saline with Tween-80
[19] = dose: 25.0 mg/kg/injection, schedule: Q01DX009 (ip), vehicle: Klucel (hydroxypropylcellulose) (HPC)
[20] = dose: 100.0 mg/kg/injection, schedule: Q01DX001 (ip), vehicle: Klucel (hydroxypropylcellulose) (HPC)
[21] = dose: 100.0 mg/kg/injection, schedule: Q04DX003 (ip), vehicle: Klucel (hydroxypropylcellulose) (HPC)
[22] = dose: 200.0 mg/kg/injection, schedule: Q04DX003 (ip), vehicle: Klucel (hydroxypropylcellulose) (HPC)

Measured: T/C

CC(=O)NCC1(c2ccccc2)CCN(CCCC(=O)c2ccc(F)cc2)CC1
inactive: [1] 94 % of control | [2] 98 % of control | dose: 4.1 mg/kg/injection, schedule: Q01DX009 (ip), vehicle: saline 96 % of control | [3] 98 % of control | dose: 8.2 mg/kg/injection, schedule: Q01DX009 (ip), vehicle: saline 96 % of control | [4] 102 % of control | [5] 100 % of control | dose: 16.5 mg/kg/injection, schedule: Q01DX009 (ip), vehicle: saline 89 % of control | [6] 100 % of control | [7] 96 % of control | dose: 25.0 mg/kg/injection, schedule: Q03HX024 (ip), vehicle: saline 86 % of control | [8] 100 % of control and 101 % of control (2×) | dose: 33.0 mg/kg/injection, schedule: Q01DX009 (ip), vehicle: saline 86 % of control | [9] 96 % of control | [10] 109 % of control | [11] 101 % of control and 108 % of control and 118 % of control | dose: 66.0 mg/kg/injection, schedule: Q01DX009 (ip), vehicle: saline 91 % of control | [12] 96 % of control | [13] 107 % of control | [14] 103 % of control | [15] 91 % of control | [16] 113 % of control

CCC(=O)c1ccc2c(c1)N(C(C)CN(C)C)c1ccccc1S2 (stereo unspecified)
inactive: [1] 100 % of control | [2] 102 % of control | [3] 100 % of control and 106 % of control | dose: 6.25 mg/kg/injection, schedule: Q03HX024 (ip), vehicle: saline 100 % of control | dose: 6.25 mg/kg/injection, schedule: Q04DX003 (ip), vehicle: saline 101 % of control | [4] 104 % of control and 109 % of control and 110 % of control | dose: 12.5 mg/kg/injection, schedule: Q03HX024 (ip), vehicle: saline 100 % of control | [5] 103 % of control | [6] 107 % of control | [7] 106 % of control and 110 % of control and 116 % of control | [8] 103 % of control and 104 % of control | [9] 115 % of control | [10] 109 % of control and 118 % of control | [11] 109 % of control and 120 % of control | [12] 109 % of control | [13] 90 % of control | [15] 96 % of control

O=[N+]([O-])c1cc(Br)c(Br)cc1N1CCCC1
inactive: [14] 98 % of control | [16] 88 % of control | dose: 400.0 mg/kg/injection, schedule: Q04DX003 (ip), vehicle: saline 86 % of control

Cc1c(Cl)cccc1NC(=O)Oc1ccc(Cl)cc1Cl
inactive: dose: 50.0 mg/kg/injection, schedule: Q01DX009 (ip), vehicle: saline with Tween-80 94 % of control | [17] 103 % of control | [18] 106 % of control

CCCCOP(=O)(O)OCCCC.[Cd]
inactive: dose: 3.0 mg/kg/injection, schedule: Q01DX009 (ip), vehicle: Klucel (hydroxypropylcellulose) (HPC) 96 % of control | dose: 6.0 mg/kg/injection, schedule: Q01DX009 (ip), vehicle: Klucel (hydroxypropylcellulose) (HPC) 96 % of control | dose: 12.0 mg/kg/injection, schedule: Q01DX009 (ip), vehicle: Klucel (hydroxypropylcellulose) (HPC) 95 % of control | dose: 12.5 mg/kg/injection, schedule: Q01DX009 (ip), vehicle: Klucel (hydroxypropylcellulose) (HPC) 96 % of control | [19] 94 % of control

COC(=O)CCN(c1ccccc1)c1ccc(C)cc1
inactive: [17] 91 % of control | [18] 92 % of control | dose: 400.0 mg/kg/injection, schedule: Q01DX009 (ip), vehicle: saline with Tween-80 92 % of control

CN(C)CCCN1CC2CCCC1O2 (stereo unspecified)
inactive: dose: 50.0 mg/kg/injection, schedule: Q01DX001 (ip), vehicle: saline 90 % of control | dose: 100.0 mg/kg/injection, schedule: Q01DX001 (ip), vehicle: saline 102 % of control | dose: 200.0 mg/kg/injection, schedule: Q01DX001 (ip), vehicle: saline 100 % of control | dose: 400.0 mg/kg/injection, schedule: Q01DX001 (ip), vehicle: saline 94 % of control

COC1OC2COC(c3ccccc3)OC2C2C1N2C#N (stereo unspecified)
inactive: dose: 25.0 mg/kg/injection, schedule: Q01DX001 (ip), vehicle: Klucel (hydroxypropylcellulose) (HPC) 100 % of control | dose: 50.0 mg/kg/injection, schedule: Q01DX001 (ip), vehicle: Klucel (hydroxypropylcellulose) (HPC) 93 % of control | [20] 100 % of control

Cc1cnc2c(NC(=O)CCl)nn(C)c2n1
inactive: [19] 98 % of control | dose: 50.0 mg/kg/injection, schedule: Q01DX009 (ip), vehicle: Klucel (hydroxypropylcellulose) (HPC) 93 % of control | dose: 100.0 mg/kg/injection, schedule: Q01DX009 (ip), vehicle: Klucel (hydroxypropylcellulose) (HPC) 93 % of control and 91 % of control | [21] 91 % of control | [22] 93 % of control

O=C1NC(=S)S/C1=C/C=C/c1ccccc1
inactive: dose: 100.0 mg/kg/injection, schedule: Q04DX002 (ip), vehicle: saline with Tween-80 95 % of control | dose: 200.0 mg/kg/injection, schedule: Q04DX002 (ip), vehicle: saline with Tween-80 87 % of control | dose: 400.0 mg/kg/injection, schedule: Q04DX002 (ip), vehicle: saline with Tween-80 98 % of control

CC(=O)Nc1cc(F)cc(F)c1Br
inactive: dose: 100.0 mg/kg/injection, schedule: Q01DX001 (ip), vehicle: carboxymethylcellulose (CMC) 105 % of control | dose: 200.0 mg/kg/injection, schedule: Q01DX001 (ip), vehicle: carboxymethylcellulose (CMC) 102 % of control | dose: 400.0 mg/kg/injection, schedule: Q01DX001 (ip), vehicle: carboxymethylcellulose (CMC) 112 % of control

O=C(c1ccccc1)c1nc2ccccc2nc1-c1ccccc1
inactive: [21] 92 % of control | [22] 92 % of control | dose: 400.0 mg/kg/injection, schedule: Q04DX003 (ip), vehicle: Klucel (hydroxypropylcellulose) (HPC) 89 % of control

CCOc1ccc(C2(C)OC(=O)C3CCCCC32)c2ccccc12 (stereo unspecified)
inactive: dose: 100.0 mg/kg/injection, schedule: Q04DX003 (ip), vehicle: gum acacia 100 % of control | dose: 200.0 mg/kg/injection, schedule: Q04DX003 (ip), vehicle: gum acacia 95 % of control | dose: 400.0 mg/kg/injection, schedule: Q04DX003 (ip), vehicle: gum acacia 90 % of control

CC(=O)CC(=O)N(C)c1ccccc1
inactive: dose: 75.0 mg/kg/injection, schedule: Q01DX001 (ip), vehicle: carboxymethylcellulose (CMC) 104 % of control | dose: 150.0 mg/kg/injection, schedule: Q01DX001 (ip), vehicle: carboxymethylcellulose (CMC) 105 % of control

Cc1ccc(CS(=O)C(Cl)(Cl)c2ccc(C)cc2)cc1 (stereo unspecified)
inactive: dose: 100.0 mg/kg/injection, schedule: Q04DX002 (ip), vehicle: Klucel (hydroxypropylcellulose) (HPC) 97 % of control | dose: 200.0 mg/kg/injection, schedule: Q04DX002 (ip), vehicle: Klucel (hydroxypropylcellulose) (HPC) 94 % of control | dose: 400.0 mg/kg/injection, schedule: Q04DX002 (ip), vehicle: Klucel (hydroxypropylcellulose) (HPC) 97 % of control

CN(C)/N=C(\Cc1ccccc1)c1ccccc1
inactive: [20] 99 % of control | dose: 200.0 mg/kg/injection, schedule: Q01DX001 (ip), vehicle: Klucel (hydroxypropylcellulose) (HPC) 99 % of control | dose: 400.0 mg/kg/injection, schedule: Q01DX001 (ip), vehicle: Klucel (hydroxypropylcellulose) (HPC) 98 % of control

CC(C)=CC(=O)OC(=O)C=C(C)C
inactive: dose: 100.0 mg/kg/injection, schedule: Q01DX009 (ip), vehicle: other 105 % of control | dose: 100.0 mg/kg/injection, schedule: Q04DX003 (ip), vehicle: saline with Tween-80 98 % of control | dose: 200.0 mg/kg/injection, schedule: Q01DX009 (ip), vehicle: other 88 % of control | dose: 200.0 mg/kg/injection, schedule: Q04DX003 (ip), vehicle: saline with Tween-80 96 % of control | dose: 400.0 mg/kg/injection, schedule: Q01DX009 (ip), vehicle: other 91 % of control | dose: 400.0 mg/kg/injection, schedule: Q04DX003 (ip), vehicle: saline with Tween-80 89 % of control
